Assay results from patent US11571484B2, “Compositions that target tumor-associated macrophages and methods of use therefor” (Sanford Burnham Prebys Medical Discovery Institute, priority 2017, dated 2023).
“And” between values parts separate entries of the source, which are not always exact repeats. Equal values may be shown once. Ends that are not written are not given here. FAM = 5(6)-carboxyfluorescein; Ahx = NCCCCCC(=O)O

What was measured:
[1] = test system: peritoneal cells (CCR2+ macrophages) of 4T1 tumor-bearing mice; assay: Flow cytometry of FAM-peptide binding to peritoneal cells from 4T1 tumor mice; type: cell-based, mouse
Procedure: A, Change in fluorescence anisotropy of FAM-UNO (dotted line) and FAM-UNO in DTT (solid line) while incubating with mouse recombinant CD206. B, Change in fluorescence anisotropy of FAM-CSPGAK with mouse recombinant CD206 (solid line) or with CD163 (dotted line) and of FAM-CPMTDNE (control) with CD206 (dashed line). C, FAM-UNO binds selectively to CCR2^+ macrophages collected from the peritoneal cavity of 4T1 tumor-bearing mice, as 94.3% of FAM^+ cells are CCR2^+ cells. The analysis was done gating for the FAM^+ population (left panel). In these 4T1 tumor bearing mice, 58% of peritoneal cells are macrophages, i.e. CCR2^+ cells (right panel). D, FAM-UNO binding to peritoneal cells is inhibited by preincubating with 10 µg/mL of anti-CD206, whereas the preincubation with anti CD206 antibody had no effect on FAM-LyP-1 binding. In panels A and D are shown representative graphs from three independent experiments. In panels c and d are shown results from three independent experiments (n=3 mice) and bars of panel D represents mean+SEM.
Peritoneal cells were extracted from Balb/c mice 2 weeks after inoculation of 10^6 cells orthotopically). Mice were anesthetized and intraperitoneally injected with 5 mL of PBS+1% BSA, the abdomen was massaged to detach macrophages and the peritoneal fluid was collected. This procedure typically yielded 5-9×10^6 cells. Cells were concentrated to 1 mL in the same peritoneal fluid. For FAM-peptide incubation, the peptides were incubated for 30 minutes at 4° C. For antibody incubation the cells were incubated with antibody for 1 h at 4° C. A647 Rat anti-CCR2 (Biolegend, CA, USA. Catalog number 150603) was incubated for 1 h at 4° C. at a dilution of 1/200. FAM-peptides were incubated at a concentration of 0.5 μg/mL, and Rat anti-CD206 (Bio-Rad, CA, USA. Product code MCA2235GA) was incubated at a concentration of 10 μg/mL. Binding of FAM-peptides was monitored with 488 nm channel and CCR2 labeling was assessed in the 647 nm channel using A647 Anti-CCR2 (Biolegend, CA, USA). After incubation of FAM-Peptides or antibodies, the cells were washed 3 times at 4° C. with PBS-Tby centrifugation at 250 g for 6 minutes, followed by flow cytometry analysis (Accuri, BD Biosciences, CA, USA).

[2] = test system: intestinal tissue (CD209) and lymph nodes of healthy mice; assay: Free peptide homing in healthy Balb/C mice; type: in vivo, mouse; conditions: 30 nmoles i.v., 2 h
Procedure: A, Thirty nmoles of FAM-UNO were injected intravenously in healthy Balb/C mice. Peptide was allowed to circulate for 2 hours. Mice were then sacrificed and intestinal tissue was analyzed by immunofluorescence using rabbit anti-FAM (green) together with rat anti-CD209 (red) and counterstained with DAPI. B, Thirty nmoles of FAM-UNO were injected intravenously in mice bearing 4T1 tumors, 10 days after orthotopic inoculation of 10^6 Cells. Peptide was let to circulate for two hours, mice were then sacked and tumor and tissues analyzed by immunofluorescence using rabbit Anti-FAM (green) together with rat anti-CD209 (red) and counterstained with DAPI (Blue). Images in A and B were taken using the same imaging conditions. Scale bar: 50 μm (images in B are at the same scale as in A). Representative images from n=3 mice.
Thirty nmoles of FAM-UNO were injected intravenously in healthy Balb/C female mice. Peptide was allowed to circulate for 2 hours. Mice were then sacrificed, and inguinal lymph node and kidney analyzed by immunofluorescence using rabbit anti-FAM together with rat anti-CD206 (red, 2901) and counterstained with DAPI (blue). FAM-UNO is absent from the healthy inguinal lymph node (left panel), while some CD206 is observed (2901). In the kidney (right panel), the FAM fluorescence signal is detected throughout the tissue. Scale bars: 100 μm. Representative images from n=3 mice.

## FAM-UNO: FAM-labeled UNO peptide CSPGAKVRC (SEQ ID NO: 1); 5(6)-carboxyfluorescein with 6-aminohexanoic acid spacer at the N-terminus ({FAM-Ahx}-CSPGAKVRC; cysteine pairing not given here)
[1]; 0.5 μg/mL peptide, 30 min, 4 °C
  cells gated for CCR2+ that were positive for FAM-UNO binding: 94%
[1]; anti-CD206 10 μg/mL
  reduction of binding to peritoneal cells by pre-incubation with anti-CD206 antibody: 25%
[1]; gated for the FAM+ population, 0.5 μg/mL peptide, 30 min, 4 °C
  FAM+ cells that are CCR2+ cells (macrophages): 94.3% and 95%
[2]
  homing to lymph nodes of healthy mice: did not home to the lymph nodes of healthy Balb/C mice
  recruitment to intestinal tissue (expresses CD209) of healthy mice: not recruited to intestinal tissue of healthy mice
